Reference: US20250388605A1, “HETEROBIFUNCTIONAL COMPOUNDS AND METHODS OF TREATING DISEASE” (Halda Therapeutics OpCo, Inc., priority 2022, published 2025)

Columns and labels:
[1] = system: T-Rex 293 cell line SC3 cells having increased expression of androgen receptor protein due to exposure to doxycycline; assay: Cellular growth inhibition, T-Rex 293 SC3 cells with doxycycline (increased androgen receptor expression), CellTiter-Glo; assay type: cell-based; conditions: T-Rex 293 SC3 cells with 10 ng/mL doxycycline (increased androgen receptor expression), 72 hours, CellTiter-Glo 2.0
Summary of the method: (§1)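 Doxycycline (10 ng/mL) was either included or omitted to toggle wild-type androgen receptor expression in SC3 cells, a T-Rex 293 clone, grown in stripped-serum, phenol red-free medium. After 72 hours with compound, viable cells were quantified by CellTiter-Glo 2.0.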

[2] = system: T-Rex 293 cell line SC3 cells lacking increased expression of androgen receptor protein; assay: Cellular growth inhibition, T-Rex 293 SC3 cells without doxycycline (no increased androgen receptor expression), CellTiter-Glo; assay type: cell-based; conditions: T-Rex 293 SC3 cells not exposed to doxycycline (no increased androgen receptor expression), 72 hours
Summary of the method: as §1

[3] = system: VCaP cells; assay: Cellular growth inhibition assay for VCaP cells, CellTiter-Glo; assay type: cell-based, human; conditions: 72 hours
Summary of the method: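 GI50 values come from four-parameter curve fits of luminescence data normalized to a zero baseline. Compound, in medium with 0.5% DMSO, was added one day after plating and left for 72 h before CellTiter-Glo 2.0 addition.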

[4] = system: T47D cells; assay: Cellular Growth Inhibition Assay for T47D Cells (CellTiter-Glo); assay type: cell-based, human; conditions: 72 hours
Summary of the method: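 GI50 values derive from four-parameter regression of CellTiter-Glo 2.0 luminescence, using zero luminescence as baseline. Human breast cancer T47D cells (3000/well; DMEM, 10% FBS, 0.2 units/mL insulin) were exposed for 72 h to compound dilutions at 0.5% DMSO, with dosing starting 24 h after seeding.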

For `CCS(=O)(=O)c1ccc(OC(CCCCCN2CCN(c3ncc(C(=O)N[C@H]4C(C)(C)[C@H](Oc5ccc(C#N)c(Cl)c5)C4(C)C)cn3)CC2)C2CC2)c(-c2cn(C)c(=O)c3[nH]ccc23)c1` (stereo partly shown) [Compound I-235], the GI50 [1] was under 500 nM, the GI50 [2] was under 500 nM and the GI50 [3] was under 500 nM. The GI50 [4] was under 500 nM.
In the case of `Cn1cc(-c2cc(C(C)(C)O)ccc2Oc2ccc(N3CC(CC4CCN(c5cnc(C(=O)N[C@H]6C(C)(C)[C@H](Oc7ccc(C#N)c(Cl)c7)C6(C)C)cn5)CC4)C3)nc2)c2cc[nH]c2c1=O` [Compound I-334], the GI50 [1] was under 500 nM, the GI50 [2] was over 3000 nM and the GI50 ([3]; Homo sapiens) was under 500 nM. For the same compound, the GI50 ([4]; Homo sapiens) was under 500 nM.
`Cn1cc(-c2cc(C(C)(C)O)ccc2Oc2ccc(OC3CCN(C4CCN(c5ncc(C(=O)N[C@H]6C(C)(C)[C@H](Oc7ccc(C#N)c(Cl)c7)C6(C)C)cn5)CC4)CC3)cc2)c2cc[nH]c2c1=O` [Compound I-328] gave a GI50 [1] of under 500 nM, a GI50 [2] of under 500 nM and a GI50 ([3]; Homo sapiens) of under 500 nM. For the same compound, the GI50 ([4]; Homo sapiens) was under 500 nM.
`Cn1cc(-c2cc(C(C)(C)O)ccc2Oc2cccc(N3CC(N(C4CC4)C4CCN(c5ncc(C(=O)N[C@H]6C(C)(C)[C@H](Oc7ccc(C#N)c(Cl)c7)C6(C)C)cn5)CC4)C3)c2F)c2cc[nH]c2c1=O` [Compound I-240] showed a GI50 [1] of under 500 nM, a GI50 [2] of over 3000 nM and a GI50 [3] of 500 to 1500 nM. It also gave a GI50 [4] of under 500 nM.
Compound `Cn1cc(-c2cc(C(C)(C)O)ccc2Oc2ccc(CC3CCN(c4ncc(C(=O)N[C@H]5C(C)(C)[C@H](Oc6ccc(C#N)c(Cl)c6)C5(C)C)cn4)CC3)nc2)c2cc[nH]c2c1=O` [Compound I-298, N-[3-(3-chloro-4-cyano-phenoxy)-2,2,4,4-tetramethyl-cyclobutyl]-2-[4-[[5-[4-(1-hydroxy-1-methyl-ethyl)-2-(6-methyl-7-oxo-1H-pyrrolo[2,3-c]pyridin-4-yl)phenoxy]-2-pyridyl]methyl]-1-piperidyl]pyrimidine-5-carboxamide] has a GI50 [1] of under 500 nM, a GI50 [2] of under 500 nM and a GI50 ([3]; Homo sapiens) of under 500 nM. It also gave a GI50 ([4]; Homo sapiens) of under 500 nM.
`Cn1cc(-c2cc(C(C)(C)O)ccc2Oc2ccc(CCCC3CCCN(c4ncc(C(=O)N[C@H]5C(C)(C)[C@H](Oc6ccc(C#N)c(Cl)c6)C5(C)C)cn4)C3)cc2)c2cc[nH]c2c1=O` (stereo partly shown) [Compound I-306] gave a GI50 [1] of under 500 nM, a GI50 [2] of over 3000 nM and a GI50 [3] of 500 to 1500 nM. For the same compound, the GI50 [4] was over 3000 nM.
`Cn1cc(-c2cc(C(C)(C)O)ccc2Oc2ccc(N3CC4(CCCN(c5ncc(C(=O)N[C@H]6C(C)(C)[C@H](Oc7ccc(C#N)c(Cl)c7)C6(C)C)cn5)C4)C3)cc2)c2cc[nH]c2c1=O` [Compound I-343] showed a GI50 [1] of under 500 nM, a GI50 [2] of over 3000 nM and a GI50 [3] of under 500 nM. For the same compound, the GI50 [4] was under 500 nM.
`CCS(=O)(=O)Nc1ccc(Oc2cccc(N3CCC(C4CN(c5ncc(C(=O)N[C@H]6C(C)(C)[C@H](Oc7ccc(C#N)c(Cl)c7)C6(C)C)cn5)C4)CC3)c2)c(-c2cn(C)c(=O)c3[nH]ccc23)c1` [Compound I-182] was tested, and the GI50 [1] was under 500 nM, the GI50 [2] was over 3000 nM and the GI50 ([3]; Homo sapiens) was under 500 nM. It also gave a GI50 ([4]; Homo sapiens) of under 500 nM.
For `Cn1cc(-c2cc(C(C)(C)O)ccc2O[C@H]2C[C@H](CC3CCN(c4ncc(C(=O)N[C@H]5C(C)(C)[C@H](Oc6ccc(C#N)c(Cl)c6)C5(C)C)cn4)CC3)C2)c2cc[nH]c2c1=O` [Compound I-309, N-[3-(3-chloro-4-cyano-phenoxy)-2,2,4,4-tetramethyl-cyclobutyl]-2-[4-[[3-[4-(1-hydroxy-1-methyl-ethyl)-2-(6-methyl-7-oxo-1H-pyrrolo[2,3-c]pyridin-4-yl)phenoxy]cyclobutyl]methyl]-1-piperidyl]pyrimidine-5-carboxamide], the GI50 [1] was under 500 nM, the GI50 [2] was 500 to 1500 nM and the GI50 ([3]; Homo sapiens) was under 500 nM. For the same compound, the GI50 ([4]; Homo sapiens) was under 500 nM.
Compound `CCS(=O)(=O)c1ccc(Oc2cccc(CCN3CC4(C3)CN(c3ncc(C(=O)N[C@H]5C(C)(C)[C@H](Oc6ccc(C#N)c(Cl)c6)C5(C)C)cn3)CCO4)c2F)c(-c2cn(C)c(=O)c3[nH]ccc23)c1` [Compound I-264] has a GI50 [1] of under 500 nM, a GI50 [2] of under 500 nM and a GI50 ([3]; Homo sapiens) of under 500 nM. The GI50 ([4]; Homo sapiens) was under 500 nM.
For `CCS(=O)(=O)Nc1ccc(Oc2cccc(N(C)C3CCN(C4CCN(c5ncc(C(=O)N[C@H]6C(C)(C)[C@H](Oc7ccc(C#N)c(Cl)c7)C6(C)C)cn5)CC4)C3)c2)c(-c2cn(C)c(=O)c3[nH]ccc23)c1` (stereo partly shown) [Compound I-42], the GI50 [1] was under 500 nM, the GI50 [2] was under 500 nM and the GI50 ([3]; Homo sapiens) was under 500 nM. It also gave a GI50 ([4]; Homo sapiens) of under 500 nM.
Work on `Cn1cc(-c2cc(C(C)(C)O)ccc2O[C@H]2C[C@H](OCC3CCN(c4ncc(C(=O)N[C@H]5C(C)(C)[C@H](Oc6ccc(C#N)c(Cl)c6)C5(C)C)cn4)CC3)C2)c2cc[nH]c2c1=O` [Compound I-290] yielded a GI50 [1] of under 500 nM, a GI50 [2] of under 500 nM and a GI50 [3] of under 500 nM. The GI50 [4] was 500 to 1500 nM.
`Cn1cc(-c2cc(C(C)(C)O)ccc2Oc2ccc(N3CC(CC4CN(c5ccc(C(=O)N[C@H]6C(C)(C)[C@H](Oc7ccc(C#N)c(Cl)c7)C6(C)C)cn5)C4)C3)cc2)c2cc[nH]c2c1=O` [Compound I-316] gave a GI50 [1] of under 500 nM, a GI50 [2] of under 500 nM and a GI50 ([3]; Homo sapiens) of under 500 nM. The GI50 ([4]; Homo sapiens) was 500 to 1500 nM.
